Values after ≈ are worked out from the molar mass of the structure shown. Like-named read-outs stand apart in the source and are kept apart here.
Assays:
Format in all cases: cell-based
[1] = test system: Staphylococcus aureus FDA 209PJc-1; assay: Antibacterial activity, agar-dilution MIC, organism No. 1; conditions: Staphylococcus aureus
In short: (§1)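 Endpoint: MIC in μg/ml of culture medium. Method: agar dilution. Medium: bouillon agar.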

[2] = test system: Staphylococcus aureus Terajima; assay: Antibacterial activity, agar-dilution MIC, organism No. 2; conditions: Staphylococcus aureus, read-out: Minimum Inhibitory Concentration
In short: as §1

[3] = test system: Staphylococcus aureus MS 353; assay: Antibacterial activity, agar-dilution MIC, organism No. 3; conditions: Staphylococcus aureus
In short: as §1

[4] = test system: Streptococcus pyogenes Cook; assay: Antibacterial activity, agar-dilution MIC, organism No. 4; conditions: Streptococcus pyogenes, read-out: Minimum Inhibitory Concentration
In short: as §1

[5] = test system: Escherichia coli NIHJ-JC-2; assay: Antibacterial activity, agar-dilution MIC, organism No. 5; conditions: Escherichia coli
In short: as §1

[6] = test system: Escherichia coli K12 C600 IAM 1264; assay: Antibacterial activity, agar-dilution MIC, organism No. 6; conditions: Escherichia coli
In short: as §1

[7] = test system: Klebsiella pneumoniae PCI-602; assay: Antibacterial activity, agar-dilution MIC, organism No. 7; conditions: Klebsiella pneumoniae
In short: as §1

[8] = test system: Salmonella typhimurium IID 971; assay: Antibacterial activity, agar-dilution MIC, organism No. 8; conditions: Salmonella enterica, read-out: Minimum Inhibitory Concentration
In short: as §1

Salmonella typhi 901 = assay: Antibacterial activity, agar-dilution MIC, organism No. 9; conditions: Salmonella enterica, TYPHI, read-out: Minimum Inhibitory Concentration
In short: as §1

[9] = test system: Salmonella paratyphi-A 1015; assay: Antibacterial activity, agar-dilution MIC, organism No. 10; conditions: Salmonella enterica, PARATYPHI, read-out: Minimum Inhibitory Concentration
In short: as §1

[10] = test system: Salmonella shottmuelleri 8006; assay: Antibacterial activity, agar-dilution MIC, organism No. 11
In short: as §1

[11] = test system: Salmonella enteritidis G 14; assay: Antibacterial activity, agar-dilution MIC, organism No. 12; conditions: Salmonella enterica, ENTERITIDIS, read-out: Minimum Inhibitory Concentration
In short: as §1

[12] = test system: Serratia marcescens IAM 1184; assay: Antibacterial activity, agar-dilution MIC, organism No. 13; conditions: Serratia marcescens
Source text: Agar-dilution method was used for determination of the antibacterial activity and antifungal activity while using bouillon-agar culture medium, and the minimum inhibitory concentration of the specimen was expressed by μg/ml of the culture medium.

[13] = test system: Bacillus subtilis ATCC 6633; assay: Antibacterial activity, agar-dilution MIC, organism No. 14; conditions: Bacillus subtilis
In short: as §1

[14] = test system: Pseudomonas aeruginosa IFO 3445; assay: Antibacterial activity, agar-dilution MIC, organism No. 15; conditions: Pseudomonas aeruginosa
In short: as §1

[15] = test system: Pseudomonas aeruginosa NCTC 10490; assay: Antibacterial activity, agar-dilution MIC, organism No. 16; conditions: Pseudomonas aeruginosa
In short: as §1

[16] = test system: Pseudomonas aeruginosa PAO 1; assay: Antibacterial activity, agar-dilution MIC, organism No. 17; conditions: Pseudomonas aeruginosa
In short: as §1

[17] = test system: Proteus morganii IFO 3848; assay: Antibacterial activity, agar-dilution MIC, organism No. 18; conditions: Morganella morganii
In short: as §1

[18] = test system: Proteus mirabilis IFO 3849; assay: Antibacterial activity, agar-dilution MIC, organism No. 19; conditions: Proteus mirabilis
In short: as §1

Proteus vulgaris OX-19 = assay: Antibacterial activity, agar-dilution MIC, organism No. 20; conditions: Proteus vulgaris
In short: as §1

Proteus vulgaris HX-19 = assay: Antibacterial activity, agar-dilution MIC, organism No. 21; conditions: Proteus vulgaris
In short: as §1

[19] = test system: Proteus rettgeri IFO 3850; assay: Antibacterial activity, agar-dilution MIC, organism No. 22; conditions: Providencia rettgeri
In short: as §1

[20] = test system: Enterobacter aerogenes ATCC 13048; assay: Antibacterial activity, agar-dilution MIC, organism No. 23; conditions: Klebsiella aerogenes
In short: as §1

Enterobacter cloacae 963 = assay: Antibacterial activity, agar-dilution MIC, organism No. 24
In short: as §1

[21] = test system: Micrococcus luteus ATCC 9341; assay: Antibacterial activity, agar-dilution MIC, organism No. 25; conditions: Micrococcus luteus
In short: as §1

[22] = test system: Mycoplasma pneumoniae IID817; assay: Antimycoplasmal activity, MIC by phenol red colour change, organism No. 28; conditions: Mycoplasma, IID817; Organism No. 28, PPLO broth + 1% glucose, 37° C.; read-out: Minimum Inhibitory Concentration (MIC)
Description: Mycoplasma pneumoniae IID817 was used as the test microorganism in a culture medium prepared by adding 1% of glucose to "PPLO broth (manufactured by Difco Co.) liquid culture medium" at 37° C. with phenol red as an indicator, thereby culturing the test microorganism.

[23] = test system: Candida albicans IAM 4905; assay: Antifungal activity, agar-dilution MIC, organism No. 29; conditions: Candida albicans
In short: as §1

[24] = test system: Aspergillus niger IFO 6342; assay: Antifungal activity, agar-dilution MIC, organism No. 30; conditions: Aspergillus niger
In short: as §1

[25] = test system: Streptococcus pyogenes IFO 3340; assay: Antibacterial activity, agar-dilution MIC, organism No. 26; conditions: Streptococcus pyogenes, IFO3340, read-out: Minimum Inhibitory Concentration
In short: as §1

[26] = test system: Streptococcus faecium IFO 3826; assay: Antibacterial activity, agar-dilution MIC, organism No. 27; conditions: Enterococcus faecium, IFO3826, read-out: Minimum Inhibitory Concentration
In short: as §1

## [C-]#[N+]C12CC3(/C=C/C(=O)Nc4nccs4)OC3C1O2 (stereo not drawn) [compound 65]
[1]; FDA209PJC1, Organism No. 1, bouillon-agar, read-out: Minimum Inhibitory Concentration
  MIC: < 0.1 µg/mL
[2]; Organism No. 2, bouillon-agar
  MIC: 0.39 µg/mL (≈ 1.42 µM)
[3]; MS353, Organism No. 3, bouillon-agar, read-out: Minimum Inhibitory Concentration
  MIC: < 0.1 µg/mL
[4]; Organism No. 4, bouillon-agar
  MIC: 12.5 µg/mL (≈ 45.4 µM)
[5]; NIHJJC2, Organism No. 5, bouillon-agar, read-out: Minimum Inhibitory Concentration
  MIC: 12.5 µg/mL (≈ 45.4 µM)
[6]; IAM1264, Organism No. 6, bouillon-agar, read-out: Minimum Inhibitory Concentration
  MIC: 6.25 µg/mL (≈ 22.7 µM)
[7]; PCI602, Organism No. 7, bouillon-agar, read-out: Minimum Inhibitory Concentration
  MIC: 1.56 µg/mL (≈ 5.67 µM)
[8]; Organism No. 8, bouillon-agar
  MIC: 25 µg/mL (≈ 90.8 µM)
Salmonella typhi 901
  MIC: 3.13 µg/mL (≈ 11.4 µM)
[9]
  MIC: 1.56 µg/mL (≈ 5.67 µM)
[10]; Salmonella, 8006, Organism No. 11, bouillon-agar, read-out: Minimum Inhibitory Concentration
  MIC: 1.56 µg/mL (≈ 5.67 µM)
[11]; Organism No. 12, bouillon-agar
  MIC: 3.13 µg/mL (≈ 11.4 µM)
[12]; IAM1184, Organism No. 13, bouillon-agar, read-out: Minimum Inhibitory Concentration
  MIC: 12.5 µg/mL (≈ 45.4 µM)
[13]; ATCC6633, Organism No. 14, bouillon-agar, read-out: Minimum Inhibitory Concentration
  MIC: 12.5 µg/mL (≈ 45.4 µM)
[14]; IFO3445, Organism No. 15, bouillon-agar, read-out: Minimum Inhibitory Concentration
  MIC: > 200 µg/mL
[15]; NCTC10490, Organism No. 16, bouillon-agar, read-out: Minimum Inhibitory Concentration
  MIC: > 200 µg/mL
[16]; PAO1, Organism No. 17, bouillon-agar, read-out: Minimum Inhibitory Concentration
  MIC: > 200 µg/mL
[17]; IFO3848, Organism No. 18, bouillon-agar, read-out: Minimum Inhibitory Concentration
  MIC: 1.56 µg/mL (≈ 5.67 µM)
[18]; IFO3849, Organism No. 19, bouillon-agar, read-out: Minimum Inhibitory Concentration
  MIC: > 200 µg/mL
Proteus vulgaris OX-19; OX19, Organism No. 20, bouillon-agar, read-out: Minimum Inhibitory Concentration
  MIC: 3.13 µg/mL (≈ 11.4 µM)
Proteus vulgaris HX-19; HX19, Organism No. 21, bouillon-agar, read-out: Minimum Inhibitory Concentration
  MIC: 0.2 µg/mL (≈ 0.727 µM)
[19]; IFO3850, Organism No. 22, bouillon-agar, read-out: Minimum Inhibitory Concentration
  MIC: 100 µg/mL (≈ 363 µM)
[20]; ATCC13048, Organism No. 23, bouillon-agar, read-out: Minimum Inhibitory Concentration
  MIC: > 200 µg/mL
Enterobacter cloacae 963; Enterobacter cloacae, 963, Organism No. 24, bouillon-agar, read-out: Minimum Inhibitory Concentration
  MIC: > 200 µg/mL
[21]; ATCC9341, Organism No. 25, bouillon-agar, read-out: Minimum Inhibitory Concentration
  MIC: 0.1 µg/mL (≈ 0.363 µM)
[22]
  MIC: < 0.2 µg/mL
[23]; IAM4905, Organism No. 29, bouillon-agar, read-out: Minimum Inhibitory Concentration
  MIC: 12.5 µg/mL (≈ 45.4 µM)
[24]; IFO6342, Organism No. 30, bouillon-agar, read-out: Minimum Inhibitory Concentration
  MIC: 50 µg/mL (≈ 182 µM)

## [C-]#[N+]C12CC3(/C=C/C(=O)Nc4ccc(O)cc4)OC3C1O2 (stereo not drawn) [compound 56]
[1]; FDA209PJC1, read-out: Minimum Inhibitory Concentration
  MIC: 1.56 µg/mL (≈ 5.49 µM)
[2]
  MIC: 6.25 µg/mL (≈ 22 µM)
[3]; MS353, read-out: Minimum Inhibitory Concentration
  MIC: 1.56 µg/mL (≈ 5.49 µM)
[4]
  MIC: 25 µg/mL (≈ 87.9 µM)
[5]; NIHJJC2, read-out: Minimum Inhibitory Concentration
  MIC: 25 µg/mL (≈ 87.9 µM)
[6]; IAM1264, read-out: Minimum Inhibitory Concentration
  MIC: 25 µg/mL (≈ 87.9 µM)
[7]; PCI602, read-out: Minimum Inhibitory Concentration
  MIC: 1.56 µg/mL (≈ 5.49 µM)
[8]
  MIC: 12.5 µg/mL (≈ 44 µM)
Salmonella typhi 901
  MIC: 6.25 µg/mL (≈ 22 µM)
[9]
  MIC: 3.13 µg/mL (≈ 11 µM)
[10]; Salmonella, 8006, read-out: Minimum Inhibitory Concentration
  MIC: 3.13 µg/mL (≈ 11 µM)
[11]
  MIC: 6.25 µg/mL (≈ 22 µM)
[12]; IAM1184, read-out: Minimum Inhibitory Concentration
  MIC: 50 µg/mL (≈ 176 µM)
[13]; ATCC6633, read-out: Minimum Inhibitory Concentration
  MIC: 12.5 µg/mL (≈ 44 µM)
[14]; IFO3445, read-out: Minimum Inhibitory Concentration
  MIC: > 200 µg/mL
[15]; NCTC10490, read-out: Minimum Inhibitory Concentration
  MIC: > 200 µg/mL
[16]; PAO1, read-out: Minimum Inhibitory Concentration
  MIC: > 200 µg/mL
[17]; IFO3848, read-out: Minimum Inhibitory Concentration
  MIC: 1.56 µg/mL (≈ 5.49 µM)
[18]; IFO3849, read-out: Minimum Inhibitory Concentration
  MIC: 12.5 µg/mL (≈ 44 µM)
Proteus vulgaris OX-19; OX19, read-out: Minimum Inhibitory Concentration
  MIC: 3.13 µg/mL (≈ 11 µM)
Proteus vulgaris HX-19; HX19, read-out: Minimum Inhibitory Concentration
  MIC: 1.56 µg/mL (≈ 5.49 µM)
[19]; IFO3850, read-out: Minimum Inhibitory Concentration
  MIC: 3.13 µg/mL (≈ 11 µM)
[20]; ATCC13048, read-out: Minimum Inhibitory Concentration
  MIC: > 200 µg/mL
Enterobacter cloacae 963; Enterobacter cloacae, 963, read-out: Minimum Inhibitory Concentration
  MIC: 200 µg/mL (≈ 704 µM)
[21]; ATCC9341, read-out: Minimum Inhibitory Concentration
  MIC: 0.78 µg/mL (≈ 2.74 µM)
[25]
  MIC: 3.13 µg/mL (≈ 11 µM)
[26]
  MIC: 50 µg/mL (≈ 176 µM)
[23]; IAM4905, read-out: Minimum Inhibitory Concentration
  MIC: 25 µg/mL (≈ 87.9 µM)
[24]; IFO6342, read-out: Minimum Inhibitory Concentration
  MIC: 50 µg/mL (≈ 176 µM)

Reference: patent US4684664A, “Derivatives of β-(4-isocyano-1,2,3,4-diepoxycyclopentyl) acrylic acid” (Kureha Kagaku Kogyo Kabushiki Kaisha, priority 1984, dated 1987)
